According to article PMC7355663, “Microscale Thermophoresis as a Screening Tool to Predict Melanin Binding of Drugs” (Pharmaceutics, 2020):

How the values were obtained:
[1] = Label-free microscale thermophoresis (MST) melanin binding assay
Experimental: Synthetic melanin was purchased from Sigma Aldrich (#M8631-100 mg). Melanin nanoparticles were prepared as described earlier by Fan et al., and low-binding pipette tips (Maxymum RecoveryTM pipet tips, Corning Incorporated, Salt Lake City, UT, USA) and tubes (No stick microtubes, Alpha Laboratories, Hampshire, UK) were used with both melanin and melanin nanoparticles. Briefly, melanin was dissolved into 1 N NaOH with a concentration of 2 mg/mL and stirred by vortexing. The solution was neutralized by adding an equal volume of 1 N HCl. […] After the final centrifugation, the resulting nanoparticles were suspended into a small volume of sterile water and freeze-dried for 48–72 h (ModulyoD-230, Thermo Savant, Holbrook, NY, USA), and stored at −20 °C until the binding assays.
Melanin binding of each of the 13 model compounds was determined (for the concentrations in the assay, see Table 1). The dilution series of drugs were prepared onto a PCR plate (4titude PCR Plate, Skirted, #4ti-0740, Brooks Life Sciences, Chelmsford, MA, USA) in phosphate buffered saline (PBS, pH 7.4). […] The compound dilutions (10 µL) were transferred into 0.2 mL PCR tube strips (#TBS0201, Bio-Rad Laboratories, Inc., Hercules, CA, USA), and an equal volume of 1 mg/mL melanin nanoparticle dilution was added, resulting in a final melanin concentration of 0.5 mg/mL. At least three biological replicates (individually incubated dilution series) were prepared for each compound (n = 3–5). A reference sample containing only melanin nanoparticles and PBS (pH 7.4) was included in each assay to determine the unbound state in the thermophoresis experiment. Melanin nanoparticles were incubated with the compounds at room temperature for at least 2 h.
After >2 h incubation, the melanin–ligand complexes were mixed gently with a pipette to ensure melanin solution homogeneity and then transferred into capillaries (Monolith NT.115 Premium capillaries, #MOK025, NanoTemper Technologies GmbH, München, Germany). The samples were analyzed with a Monolith NT.115 pico device using MO.Control Software (both from NanoTemper Technologies GmbH, München, Germany) using nano-blue excitation, LED light adjusted to 60% excitation power, and infrared laser (MST power) set to high. […] The equation is based on the Langmuir binding isotherm. […] Equation (1) is a follows:(1) f(c)=Unbound+(Bound−Unbound)×c+c(target)+Kd−(c+c(target)+Kd)^2−4c×c(target)/2c(target) where f(c) is the fraction bound at a given ligand concentration c. Unbound is either the normalized fluorescence signal (Fnorm; MST mode) or raw fluorescence counts (initial fluorescence mode) of the target alone. Bound is either the normalized fluorescence signal or raw fluorescence counts (initial fluorescence mode) of the melanin–ligand complex. Kd is the dissociation constant or binding affinity, and c (target) is the final concentration of the target in the assay.
The normalized fluorescence is the ratio of relative fluorescence of the selected region after heating (hot region) and relative initial fluorescence before the heating (cold region, i.e., relative fluorescence values before the infrared laser was switched on). The MST traces displaying the changes in the relative fluorescence over time (heating) with the selected hot and cold regions are presented in the Supplementary Materials. In the case of ligand-induced changes in the initial raw fluorescence counts, the raw fluorescence counts prior to the heating were used (initial fluorescence mode). If the ligand-induced fluorescence changes were not observed, the normalized fluorescence signals (MST mode) were used to determine the Kd (for additional information, see the Supplementary Materials). […] Affinity Analysis Software.
Kd determination strategies. The Kd values were tested in both initial fluorescence and the above
described MST modes within the MO Affinity Analysis Software (Fig. S1, Table S1) and the Kd values

[2] = Traditional melanin binding assay (equilibrium binding, Sips isotherm)
Experimental: (§1) The traditional melanin binding assay was conducted with melanin from the porcine RPE-choroid. We used previously published methods for melanin isolation and drug binding. Fresh melanin suspension and test compound solutions were prepared before each experiment. The melanin suspension (in PBS, pH 7.4) was sonicated in a bath sonicator for 30 min (Elmasonic S 40 H, Elma Schmidbauer GmbH, Singen, Germany) before the experiment. The incubation with test compounds took place at 37 °C on a shaker (220 rpm), and the melanin concentration in the assay was 1 mg/mL (0.15 mg/well). In the control samples, PBS buffer (pH 7.4) was used instead of the melanin suspension. Three individual replicates were made for each experiment. After 20 h incubation, the samples were centrifuged at 20,000× g for 20 min, and supernatant containing the unbound ligand was collected for analysis.
(§2) Samples having an estimated concentration of 0.5 µM or higher were analyzed with ultra-high pressure liquid chromatography (UPLC) (Acquity UPLC, Waters, Milford, MA, USA) with UV detection (Photodiode Array Detector, Waters, MA, USA). The separation was carried out on a Luna Omega Polar C18 (1.6 μm, 2.1 × 50 mm^2) column (Phenomenex) at 30 °C. Injection volume was 4 µL. Gradient mode was used for all the compounds with an acetonitrile/15 mM phosphate buffer (pH 2) mobile phase. Gradient duration was 3−5 min depending on the sample (levofloxacin, terazosin, and papaverine).
(§3) All internal standards, namely levofloxacin D8, terazosin D8, and papaverine D3, were purchased from Toronto Research Chemicals (Toronto, ON, Canada). […] Injection volumes were 0.2 μL for terazosin, 0.3 µL for levofloxacin, and 0.15 µl for papaverine with a flow through needle injection system. The mobile phase consisted of 0.1% formic acid (Merck, Darmstadt, Germany) in ultrapure water (A) and 100% LC–MS grade acetonitrile (Honeywell, Seelze, Germany) (B). […] The gradient for levofloxacin was the same as for papaverine, but the total run time was 6 min. The flow rate was 0.3 mL/min for all the compounds.
(§4) Mass spectrometric measurements were carried out using a Waters Xevo TQ-S triple quadruple mass spectrometer coupled with an electrospray ionization (ESI) on a positive mode for all three compounds. Optimized MS-parameters were as follows: capillary 1.5 kV (terazosin and papaverine), 3.5 kV (levofloxacin), cone voltage 80 V (terazosin) and 8 V (terazosin D8), 22 V (papaverine and papaverine D3), 28 V (levofloxacin and levofloxacin D8), source temperature 150 °C, and desolvation temperature 500 °C (terazosin) or 450 °C (papaverine and levofloxacin). Nitrogen (AGA, Helsinki, Finland) was used as the desolvation gas (1000 L·h^−1 terazosin, 800 L·h^−1 papaverine and levofloxacin) and the cone gas (150 L·h^−1), argon (AGA, Helsinki, Finland) as the collision gas. Multiple reaction monitoring (MRM) mode was employed for quantification. […] The resulting data were analyzed with Waters MassLynx V4.1 software. To consider the effect of melanin on the analyses, separate samples containing only melanin in PBS (with no test compound) were also studied.
(§5) The binding parameters were determined with Sips isotherm (Equation (2)) as described by Manzanares et al.. B = (Bmax × [L]^n)/(Kd^n + [L]^n)(2) where B is the amount of bound drug (nmol·mg^−^1); Bmax is the maximum binding capacity (nmol·mg^−^1); [L] is the free drug concentration (µM); n is the heterogeneity index (assuming heterogeneity of the surface of the melanin particles); and Kd represents the dissociation constant (µM).

melanin [3] = assay: in vitro; conditions: pig, pH 7.4
Experimental: as §1, §2, §3, §4, §5

[4] = Prediction of unbound ligand fraction in vivo (human RPE-choroid); conditions: class by predicted fraction unbound in vivo, human RPE-choroid
Experimental: (§6) Unbound ligand fractions in vivo were calculated considering melanin binding as the only driver of nonspecific tissue binding.
(§7) Linear regression was used to describe the relationship between the Kd values obtained with the MST and the predicted unbound ligand fractions in human RPE-choroid obtained with calculations described above.
(§8) The Kd values obtained with MST consider only one class of binding site, whereas the Sips isotherm (the traditional binding assay) depicts different binding energies and binding sites. […] This approach is relevant to evaluate the melanin binding.

melanin [5] = assay: as above; conditions: human, human RPE-choroid (predicted), 34.8 mg/mL melanin
Experimental: as §6, §7, §8

[6] = Label-free microscale thermophoresis (MST) melanin binding assay; conditions: Table S2; 80% excitation power; read-out: Kd, initial fluorescence mode

Kd ([1]; 0.5 mg/mL (12.5 µM) melanin nanoparticles, PBS pH 7.4, room temperature, 68% confidence, initial fluorescence mode for compounds marked *, otherwise MST mode, read-out: Kd ± Kd Confidence (MST)): 46.5 ± 40.1 µM
Kd ([1]; Table S2, normalized fluorescence, 60% excitation power, read-out: Kd, MST mode (Fnorm)): 47 µM
Target Capacity ± SE, traditional method (Sips isotherm) ([2]; Bmax multiplied with 0.5 mg/mL melanin concentration of the MST assay): 36 ± 5.5 µM
n ± SE, traditional method (Sips isotherm) ([2]; heterogeneity index, 1 mg/mL melanin, PBS pH 7.4, 37 °C, 20 h): 0.73 ± 0.02
Bmax ± SE, traditional method (Sips isotherm) ([2]; maximum binding capacity, 1 mg/mL melanin, PBS pH 7.4, 37 °C, 20 h): 72 ± 11 nmol/mg
Kd ([2]; read-out: Kd ± SE, traditional method (Sips isotherm), 1 mg/mL melanin, PBS pH 7.4, 37 °C, 20 h): 157 ± 56 µM
fraction unbound at 20 h, 1 µM (melanin [3]): 0.28
fraction unbound at 1 µM (melanin [5]): 0.0033
Kd [6]: 54 µM
Structure (SMILES): C[C@H]1COc2c(N3CCN(C)CC3)c(F)cc3c(=O)c(C(=O)O)cn1c23 [Levofloxacin]
Melanin binding class based on traditional assay [4]: high
